Consider ten compounds from publication PMC8588271 (Molecules, 2021).

Series [1] can be described thus: DPPH radical scavenging assay (in vitro). Conditions: 0.1 mM DPPH in MeOH, 30 min dark, room temperature, 540 nm. On the technique in general: The DPPH test is a chemical assay of radical scavenging.
Series [2] relates to RAW 264.7 cells. Description: Nitric oxide production (Griess reagent) in LPS-stimulated cells. It counts as cell-based, murine. Conditions: RAW 264.7, 1 h pretreatment, LPS 0.5 μg/mL 24 h.
Description: (§1) The macrophage-like murine cell line RAW 264.7 (KCLB number 40071; Korean Cell Line Bank, Seoul, Korea) was cultured in Dulbecco’s Modified Eagle Medium (DMEM, Sigma-Aldrich, St. Louis, MO, USA) supplemented with 10% heat-inactivated fetal bovine serum (FBS, Invitrogen, Burlington, ON, Canada) and 1% (w/v) antibiotic–antimycotic solution (Invitrogen, Grand Island, NY, USA) at 5% CO2 and 37 °C.
Nitrite accumulation was used as an indicator of NO production in the medium, and the nitrite level was determined by assaying the culture supernatants for nitrite using the Griess reagent (1% sulfanilamide, 0.1% N-(1-naphathyl)-ethylenediamine dihydrochloride, and 5% phosphoric acid). […] Then, 100 μL of cell culture supernatants were mixed with 100 μL of Griess reagent in a 96-well plate. Sodium nitrite was used to generate a standard curve and the concentration of nitrite was then measured by the absorbance at 540 nm using a microplate reader. All determinations were performed in triplicate.
Another series deals with T1, BACE-1 (Homo sapiens, UniProt P56817).
T1 construct: purchased PanVera (Madison, WI, USA) / Thermo Fisher Scientific P2985
The series can be described thus: BACE-1 FRET inhibition assay. It is filed as biochemical. Particulars: FRET kit, 60 min room temperature, triplicate, tested up to 50 µM.

Series [3] relates to RAW 264.7 cells. The series can be described thus: MTT cytotoxicity assay. It is filed as cell-based, murine. Conditions: RAW 264.7, 24 h. Background: Formazan colour is commonly taken as a measure of viable cells.
Description: as §1
Cell cytotoxicity was determined by an MTT (3-(4,5)-dimethylthiazol-2-yl-2,5-diphenyltetrazolium bromide, Amresco, Solon, OH, USA) colorimetric assay. […] After incubation with test substances, MTT solutions (5 μL of a 5 mg/mL concentration in PBS) were added to the wells and incubated for 4 h at 37 °C. Then, treated with 100 μL of fresh DMSO to dissolve the crystals for 10 min, the cells were detected under a microplate reader (Thermo Scientific Inc., San Diego, CA, USA) to measure the absorbance at 570 nm. Relative cell viability was calculated by comparing the absorbance of the untreated control group. All experiments were performed in triplicate.
A short description of series [4]: Stability in aqueous solution by HPLC purity. It is filed as physicochemical. Particulars: 10 mM in water, room temperature, HPLC UV 254 nm; ramalin started at 98%. From the text:
Therefore, to improve its stability and BBB penetration capacity, its structure was modified by replacing the phenolic hydroxyl groups at position two with either a methyl group or a fluorine atom and by changing their positions. Thus, several derivatives were obtained. Specifically, RA-2Me, RA-3Me, and RA-4Me were synthesized by changing the position of the methyl group, which is an electron-donating group, and RA-25Me and RA-34Me, with two methyl groups on the phenyl ring, were synthesized by introducing an extra methyl group. To investigate the effect of fluorine atoms, which are electron-withdrawing as opposed to the methyl group, RA-2F, RA-4F, RA-24F, and RA-pentafluoride (PF) were also successfully synthesized. […] AD-related therapeutic agents are required to penetrate the BBB and reach their target. […] Given that ramalin and its derivatives are water-soluble low-molecular-weight compounds and that their lipophilicities and hydrophilicities balance out, their influence on AlogP, which indicates lipophilicity, was not significant. Additionally, given their PSA values (90 Å^2 < PSA < 140 Å^2), they are considered to be advantageous in terms of BBB penetration.

Entries after “also recorded” stand apart in the source; their conditions may differ.

The IC50 is the midpoint of a concentration-inhibition curve.

T1 sequence (P56817 46-501): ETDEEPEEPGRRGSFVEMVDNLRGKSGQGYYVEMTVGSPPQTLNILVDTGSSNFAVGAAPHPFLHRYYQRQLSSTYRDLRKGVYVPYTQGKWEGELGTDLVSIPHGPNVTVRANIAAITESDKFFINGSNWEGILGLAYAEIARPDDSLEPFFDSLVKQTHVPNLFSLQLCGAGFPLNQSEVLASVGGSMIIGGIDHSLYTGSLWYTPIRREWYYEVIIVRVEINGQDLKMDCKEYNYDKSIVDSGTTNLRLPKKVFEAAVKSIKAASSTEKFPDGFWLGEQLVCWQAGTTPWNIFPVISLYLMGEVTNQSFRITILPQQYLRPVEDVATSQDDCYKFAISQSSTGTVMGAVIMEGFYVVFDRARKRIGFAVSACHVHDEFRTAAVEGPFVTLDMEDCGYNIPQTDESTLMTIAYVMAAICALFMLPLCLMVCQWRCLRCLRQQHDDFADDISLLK
Description for BACE-1: The experiments were each performed in triplicates for all of the compounds.
A BACE-1 inhibition assay was conducted using a β-Secretase FRET kit (BACE-1, Thermo Fisher Sientific, San Diego, CA, USA) according to manufacturer instructions. […] The sample was diluted further in assay buffer (final concentrations of 50, 25, 12.5, 6.25, 3.12, 1.56, 0.78, 0.39, 0.2, and 0.1 µM in each well) and black 96-well microplates were mixed with 10 µL of BACE-1 substrate. Then, 10 µL of 3 × BACE-1 enzyme was added to each well to start the reaction. Plates were incubated at room temperature in the dark for 60 min. After incubation, 10 µL of 2.5 mM sodium acetate was added to each well to stop the reaction. Finally, multiwell spectrofluorometer instruments were used for a multimode plate reader (Multistkan^TM GO, Thermo Scientific, Waltham, MA, USA) at an excitation wavelength of 545 nm and an emission wavelength of 585 nm. The half-maximal inhibitory concentration (IC50) was calculated by plotting the obtained relative fluorescence unit per hour (RFU/h) against the logarithmic of the inhibitor concentration. All determinations were performed in triplicate.

For the compound `N[C@@H](CCC(=O)NNc1ccccc1F)C(=O)O` [RA-2F, N^5-((2-Fluorophenyl)amino)-L-glutamine], the IC50 stood at 4.42 µM in series [1] and 18.8 ± 3.86 µM against BACE-1. Moreover, the “NO inhibitory (anti-inflammatory) activity” value (from here on “NO inhibitory”) in the series with RAW 264.7 cells [2] is “concentration-dependent NO inhibition”.
Consider `Cc1ccccc1NNC(=O)CC[C@H](N)C(=O)O` [RA-2Me, N^5-(o-Tolylamino)-L-glutamine], for which the IC50 in series [1] was found to be 2.79 µM; at BACE-1, 15 ± 4.92 µM. The “NO inhibitory” value in the series with RAW 264.7 cells [2] was “weak anti-inflammatory effects”.
The matching figures for `Cc1cccc(NNC(=O)CC[C@H](N)C(=O)O)c1` [RA-3Me, N^5-(m-Tolylamino)-L-glutamine]: 5.3 µM, 22.5 ± 0.69 µM and “weak anti-inflammatory effects”.
On the same counts, the results for `N[C@@H](CCC(=O)NNc1ccc(F)cc1)C(=O)O` [RA-4F, N^5-((4-Fluorophenyl)amino)-L-glutamine] are 4.16 µM, 20.1 ± 4.78 µM and “concentration-dependent NO inhibition”.
As to `Cc1ccc(NNC(=O)CC[C@H](N)C(=O)O)cc1` [RA-4Me, N^5-(p-Tolylamino)-L-glutamine], the IC50 in series [1] was 3.91 µM; against BACE-1, 13 ± 1.62 µM. In addition, the “NO inhibitory” value with RAW 264.7 cells [2] is reported as “weak anti-inflammatory effects”.
In the case of `N[C@@H](CCC(=O)NNc1ccc(F)cc1F)C(=O)O` [RA-24F, N^5-((2,4-Difluorophenyl)amino)-L-glutamine], the IC50 in series [1] was 5.32 µM. In the series with RAW 264.7 cells [2], the “NO inhibitory” value is reported as “concentration-dependent NO inhibition; also recorded: stronger anti-inflammatory effect than ramalin”. The “Cytotoxicity (cell viability, MTT)” value in the series on RAW 264.7 cells [3] is “without cytotoxicity”.
Consider `Cc1ccc(C)c(NNC(=O)CC[C@H](N)C(=O)O)c1` [RA-25Me, N^5-((2,5-Dimethylphenyl)amino)-L-glutamine], for which the IC50 was found to be 4.5 µM in series [1] and 9.81 ± 1.21 µM on BACE-1. Moreover, the “NO inhibitory” value in the series with RAW 264.7 cells [2] is reported as “concentration-dependent NO inhibition”.
For `Cc1ccc(NNC(=O)CC[C@H](N)C(=O)O)cc1C` [RA-34Me, N^5-((3,4-Dimethylphenyl)amino)-L-glutamine], the IC50 in series [1] worked out at 4.46 µM; at BACE-1, 13.1 ± 1.52 µM. The “NO inhibitory” value in the series with RAW 264.7 cells [2] is “concentration-dependent NO inhibition”.
In the case of `N[C@@H](CCC(=O)NNc1c(F)c(F)c(F)c(F)c1F)C(=O)O` [RA-PF, N^5-((Perfluorophenyl)amino)-L-glutamine], in the series on RAW 264.7 cells [2], the “NO inhibitory” value is listed as “concentration-dependent NO inhibition”. The 50% inhibitory concentration (IC50) at BACE-1 is 14.6 ± 6.08 µM.
As to `NC(CCC(=O)NNc1ccccc1O)C(=O)O` (stereo not drawn) [Ramalin, ramalin], the “Purity after 14 h in water” value in series [4] worked out at 83%.
